According to patent publication US20060287383A1, “Substance exhibiting antidepressant property” (priority 2003, published 2006):
Structures can show the parent of a compound that is named as a salt.

Legend:
white outbred male rats [1] = test: involuntary swimming in a reservoir with freely moving wheels according to Nomura; type: in vivo
Description: The method of involuntary swimming in a reservoir with freely moving wheels (Nomura S., Shimizu J., Kinjo M. et al. A new behavioral test for antidepressant drugs//Eur. J. Pharmacol.—1982.—v. 83.—N 34.—p. 171-175) is widely used for assessing the action of antidepressant agents. The installation is a reservoir having dimensions of 64×30×42 cm and divided into four equal sections where wheels are located. The reservoir is filled with water at the temperature of 25° C., coming to the medium line of the wheels. The studies have been conducted with white outbred male rats having the weight from 230 to 250 grams. The rats have been put into each section in the position where their heads are opposite to the wheels, and then the wheel speed has been recorded for 10 minutes with the use of electromechanical counters. The number of wheel revolutions made by the rat for 10 minutes is recorded.
(§1) This study has been conducted with animals from different groups. The rats from the experimental groups have received single doses of phenotropyl in the amounts of 25, 50 and 100 mg/kg or the standard amitriptyline medication in the amount of 10 mg/kg (ampoule solution made by Spofa, the Czech Republic) in the volume corresponding to the dosage. The animals from the control group have received distilled water in the same dosage. All the substances have been given intragastrically 40 minutes before the an experiment.

white outbred male rats [2] = test: Porsolt method of behavioral despair (helplessness); type: in vivo
Source text: The Porsolt method of behavioral despair (helplessness) (Porsolt R. D., Anton G., Blavet N. et al. Behavioral despair in rats: a new model sensitive to antidepressant treatment//Europ. J. Pharmacol. 1978—v. 47.—p. 379-391) is the basic model for assessing antidepressants (Andreeva N. I., ? H. ? . the Methodical Guidelines for Studying Antidepressant Activity of Pharmaceuticals,//Guidebook for Experimental (Preclinical) Studies of New Pharmaceuticals of the RF Ministry of Public Health.—ZAO IIA “Remedium”.—2000.—p. 121-125). The studies have been conducted on white outbred male rats having the weight of 230-250 grams. The animals have been put into a water reservoir having 40 cm in diameter and the depth of 60 cm, for the rats cannot either run out of the reservoir or find a support in it. The water temperature has been maintained at the level of 25° C., the experiments have been conducted within the period from 12 A.M. to 4 P.M. After coming into water the animals begin displaying energetic motion activity aimed at finding a way out of the aversive (troublesome) situation, but then they stop their attempts and take a typical position in the water, while being fully immovable or making insignificant motions necessary for keeping their heads over the water surface. The depressive condition intensity rate in this test is the duration of immobility. The immobility condition has been assessed visually, determining its duration within 10 minutes of the observations. Substances having antidepressant activity alleviate this condition by reducing the immobility time.
as §1, with “The studies have been” for “This study has been”, “conducted using” for “conducted with”, “animals divided into” for “animals from different”, “The animals” for “The rats”, “the dose.” for “the dosage.”

[3] = tested on: patients having depressive illnesses; test: clinical study, Hamilton rating scale for depressive illness; type: in vivo, human; details: 75 mg daily
Description: The Hamilton rating scale for primary depressive illness (Hamilton M. Development of a rating scale for primary depressive illness//Br J Soc Clin Psychol. 1967 December;6(4):278-96) is one of the most widely used scales for assessing depression in the clinical practice.
The material for clinical studies has comprised two homogenous groups of patients having depressive illnesses (40 persons) aged 20-42, out of which 20 patients have taken amitriptyline in the daily dose of 75 mg (25 mg three times a day), and 20 patients have taken phenotropyl in the daily dose of 100 mg as a single dose in the morning time. For a comparative study of the medications antidepressant activity the patients have been enlisted for the study according to the following criteria: the informed consent is available, a light or moderate depressive episode (F32.0 ? F32.1 according to MCB-10) is present, the total score under the Hamilton rating scale is not lower than 18, no contraindications to taking amitriptyline and phenotropyl. The patients have been relatively uniformly assigned to the said groups according to meaningful factors, such as sex and age, time for which the condition exists and syndrome characteristics. The condition existence time varied from 1 to 2 years. The therapy efficiency has been assessed on the basis of a degree of reduction of the total score under the Hamilton scale, namely: full effect—reduction by more than 50%; partial reduction—from 25 to 50%; no effect—reduction by less than 25%. The condition of the patients has been assessed during the background studies and at each 7th day of the therapy for the whole 6 weeks of the therapy. In total, seven examinations have been carried out. The comparative data on the general efficiency pf the medications, as given in Table 5, evidence a rather quick reduction of the depressive illness psychopathological symptoms in the process of administering phenotropyl and amitriptyline. However, the antidepressant effect of phenotropyl has been more pronounced on the 7th and 14th days of the therapy. The full reduction has been attained in 25% and 40% of the patients, respectively. […] From the 28th day of the therapy the number of the patients experiencing the maximum effect has not been changed either on the 35th or the 42nd days of the therapy. Out of 20% of the patients experiencing a partial reduction of the depressive symptoms, 15% have been patients with the reduction from 25% to 50%, and 5%—patients with the reduction by less than 25%.

white outbred male rats [4] = test: reserpine depression method according to Bernardi; type: in vivo; details: reserpine 2.5 mg/kg intraperitoneally alone
Source text: The method of reserpine depression according to Bernardi (Bernardi D., Paglialunga S., Jori A. Peripheral and central components in the hyperthermic effect of desipramine in rezerpinized rats//J. Pharm. Pharmacol., 1968, vol. 20, p. 204-209) is one of the basic models for assessing antidepressants in studies of new pharmaceuticals. The studies have been conducted with white outbred male rats having the weight from 200 to 240 grams. Reserpine has been introduced intraperitoneally, as a single dose of 2.5 mg/kg 2 hours before the introduction of phenotropyl (intraperitoneally, single doses of 25, 50, 100 and 200 mg/kg) and 3 hours before starting the study. The animals from the control group have received intraperitoneally distilled water only in the same volumes as the animals from the experimental groups. The antidepressant activity of phenotropyl has been assessed by its effect on sedation (suppression of the orientation and motion activity), intensity of ptosis and diarrhea, which have been caused by reserpine in the rats.
The orientation and motion activity of the animals has been studied for three minutes in a special activity meter (Varimex). The intensity of ptosis and diarrhea has been assessed on the standard 4-point scale (Mashkovsky M. D., Andreeva N. I., Polezhaeva A. I. Pharmacology of Antidepressants. Moscow, Medicine Publishers, 1983, p. 194-199).

white outbred male mice = test: haloperidol catalepsy method; type: in vivo; details: haloperidol 0.5 mg/kg intraperitoneally alone
Description: As one of the indicators for antidepressant antagonism in relation to depriming effects of neuroleptics, neuroleptic-induced catalepsy is used. The maintenance of catalepsy in animals is assessed by their ability to maintain set or unusual poses for a definite time (Morpurgo C. Effects of antiparkinson drugs on phenothiazine induced catatonia reaction//Arch. Int Pharmacodyn., 1962, vol. 137 No 1-2, p. 84-94). Reduction or prevention of catalepsy is one of the factors showing antidepressant activity in studied substances.
The studies have been conducted with white outbred male mice having the weight from 18 to 24 grams. Haloperidol is introduced intraperitoneally in a single dose of 0.5 mg/kg. Phenotropyl has been introduced intraperitoneally in doses of 50, 100 and 200 mg/kg in 15 minutes after the introduction of haloperidol. The catalepsy intensity has been assessed by time (in seconds) of keeping the animals in an uncomfortable pose where their front legs have been put onto a bar having the height of 4 cm, in 60, 120 and 180 minutes after introducing the said medications. It is shown in Table 4 that phenotropyl clearly antagonizes haloperidol-induced catalepsy.

CN(C)CCC=C1c2ccccc2CCc2ccccc21 [Amitriptyline, 5-(3-dimethylaminopropylidene)-10,11-dihydrodibenzocycloheptine hydrochloride, reference compound]
effect on number of wheel revolutions (white outbred male rats [1]; 10 mg/kg intragastrically): reliably increasing the number of wheel revolutions
Number of wheel revolutions for 10 minutes (white outbred male rats [1]; single dose 10 mg/kg intragastrically 40 minutes before): 115.1 ± 24.6
effect on immobility time (white outbred male rats [2]; 10 mg/kg intragastrically): reliably reduced the immobility time
Time of immobility (white outbred male rats [2]; single dose 10 mg/kg intragastrically 40 minutes before, 10 minutes observation): 166.1 ± 46.5 s
patients (%) with reduction of total Hamilton score 25-49 ([3]; 7th therapy day): 20%
patients (%) with reduction of total Hamilton score <25 ([3]; 7th therapy day): 80%
patients (%) with reduction of total Hamilton score ≧50 ([3]; 7th therapy day): 0%
patients (n) with reduction of total Hamilton score 25-49 ([3]; 7th therapy day): 4
patients (n) with reduction of total Hamilton score <25 ([3]; 7th therapy day): 16
patients (n) with reduction of total Hamilton score ≧50 ([3]; 7th therapy day): 0
patients (%) with reduction of total Hamilton score 25-49 ([3]; 14th therapy day): 30%
patients (%) with reduction of total Hamilton score <25 ([3]; 14th therapy day): 50%
patients (%) with reduction of total Hamilton score ≧50 ([3]; 14th therapy day): 20%
patients (n) with reduction of total Hamilton score 25-49 ([3]; 14th therapy day): 6
patients (n) with reduction of total Hamilton score <25 ([3]; 14th therapy day): 10
patients (n) with reduction of total Hamilton score ≧50 ([3]; 14th therapy day): 4
patients (%) with reduction of total Hamilton score 25-49 ([3]; 21st therapy day): 30%
patients (%) with reduction of total Hamilton score <25 ([3]; 21st therapy day): 30%
patients (%) with reduction of total Hamilton score ≧50 ([3]; 21st therapy day): 40%
patients (n) with reduction of total Hamilton score 25-49 ([3]; 21st therapy day): 6
patients (n) with reduction of total Hamilton score <25 ([3]; 21st therapy day): 6
patients (n) with reduction of total Hamilton score ≧50 ([3]; 21st therapy day): 8
patients (%) with reduction of total Hamilton score 25-49 ([3]; 28th therapy day): 10%
patients (%) with reduction of total Hamilton score <25 ([3]; 28th therapy day): 20%
patients (%) with reduction of total Hamilton score ≧50 ([3]; 28th therapy day): 70%
patients (n) with reduction of total Hamilton score 25-49 ([3]; 28th therapy day): 2
patients (n) with reduction of total Hamilton score <25 ([3]; 28th therapy day): 4
patients (n) with reduction of total Hamilton score ≧50 ([3]; 28th therapy day): 14
patients (%) with reduction of total Hamilton score 25-49 ([3]; 35th therapy day): 5%
patients (%) with reduction of total Hamilton score <25 ([3]; 35th therapy day): 10%
patients (%) with reduction of total Hamilton score ≧50 ([3]; 35th therapy day): 85%
patients (n) with reduction of total Hamilton score 25-49 ([3]; 35th therapy day): 1
patients (n) with reduction of total Hamilton score <25 ([3]; 35th therapy day): 2
patients (n) with reduction of total Hamilton score ≧50 ([3]; 35th therapy day): 17
patients (%) with reduction of total Hamilton score 25-49 ([3]; 42nd therapy day): 5%
patients (%) with reduction of total Hamilton score <25 ([3]; 42nd therapy day): 10%
patients (%) with reduction of total Hamilton score ≧50 ([3]; 42nd therapy day): 85%
patients (n) with reduction of total Hamilton score 25-49 ([3]; 42nd therapy day): 1
patients (n) with reduction of total Hamilton score <25 ([3]; 42nd therapy day): 2
patients (n) with reduction of total Hamilton score ≧50 ([3]; 42nd therapy day): 17

COC(=O)[C@H]1[C@H]2C[C@@H]3c4[nH]c5cc(OC)ccc5c4CCN3C[C@H]2C[C@@H](OC(=O)c2cc(OC)c(OC)c(OC)c2)[C@@H]1OC [Reserpine, reference compound]
Diarrhea (white outbred male rats [4]; 4-point scale): 2.4 ± 0.1 points
Ptosis (white outbred male rats [4]; 3 hours before study, 4-point scale): 3.6 ± 0.2 points
Number of pulses in activity meter (white outbred male rats [4]; three minutes, Varimex): 11.8 ± 2.2

O=C(CCCN1CCC(O)(c2ccc(Cl)cc2)CC1)c1ccc(F)cc1 [Haloperidol, reference compound]
Catalepsy (white outbred male mice; 60 minutes): 1.3 ± 0.8 s
Catalepsy (white outbred male mice; 120 minutes): 27.5 ± 8.5 s
Catalepsy (white outbred male mice; 180 minutes): 63.4 ± 2.8 s
